US11471462B2, “Compositions and methods for detecting and treating diabetes” (THE BROAD INSTITUTE, INC., priority 2016, dated 2022)

Key:
SLC16A11 [1] = test: SLC16A11 protein-protein interaction study (immunoprecipitation, quantitative mass spectrometry); design: species or system human; conditions: putative SLC16A11^REF interaction partners; immunoprecipitation from HEK293T cells vs empty vector control; Blandt-Altman
Source text: Alternatively, these variants may result in reduced transport because they disrupt protein-protein interactions responsible for correct SLC16A11 function. To explore this possibility, SLC16A11 was immunoprecipitated from HEK293T cells expressing either REF or T2D risk SLC16A11-V5 or empty vector control and quantitative mass spectrometry was used to define the SLC16A11 interactome.
Another mechanism through which the variants could affect activity is through disruption of protein-protein interactions. To explore this possibility, quantitative mass spectrometry-based protein-protein interaction studies were performed to define the SLC16A11 interactome and evaluate if the T2D risk coding variants alter any interactions.
Beads were then washed once with lysis buffer and three times with wash buffer. After the last wash, residual wash buffer was removed, 10 μL fresh wash buffer was added, and beads were stored at −80° C. until analysis by the Proteomics Platform at the Broad Institute, as detailed in the “Proteomics Methods for SLC16A11 Protein Interaction Studies” below.
The beads from immunopurification were washed once with IP lysis buffer, then three times with PBS, the three different lysates of each replicate were resuspended in 90 uL digestion buffer (2M Urea, 50 mM Tris HCl), 2 ug of sequencing grade trypsin added, 1 hour shaking at 700 rpm. The supernatant was removed and placed in a fresh tube. The beads were then washed twice with 50 uL digestion buffer and combined with the supernatant. The combined supernatants were reduced (2 uL 500 mM DTT, 30 minutes, RT), alkylated (4 uL 500 mM IAA, 45 minutes, dark) and a longer overnight digestion performed: 2 ug (4 uL) trypsin, shake o/n, The samples were then quenched with 20 uL 10% FA and desalted on 10 mg SepPak columns.
Desalted peptides were labelled with iTRAQ reagents according to the manufacturer's instructions (AB Sciex, Foster City, Calif.). Peptides were dissolved in 30 μl of 0.5 M TEAB pH 8.5 solution and labeling reagent was added in 70 ul of ethanol. After 1 h incubation the reaction was stopped with 50 mM Tris/HCl pH 7.5. Differentially labelled peptides were mixed and subsequently desalted on 10 mg SepPak columns.
Reconstituted peptides were separated on an online nanoflow EASY-nLC 1000 UHPLC system (Thermo Fisher Scientific) and analyzed on a benchtop Orbitrap Q Exactive Plus mass spectrometer (Thermo Fisher Scientific). The peptide samples were injected onto a capillary column (Picofrit with 10 μm tip opening/75 μm diameter, New Objective, PF360-75-10-N-5) packed in-house with 20 cm C18 silica material (1.9 μm ReproSil-Pur C18-AQ medium, Dr. Maisch GmbH, r119.aq). The UHPLC setup was connected with a custom-fit microadapting tee (360 μm, IDEX Health & Science, UH-753), and capillary columns were heated to 50° C. in column heater sleeves (Phoenix-ST) to reduce backpressure during UHPLC separation. Injected peptides were separated at a flow rate of 200 nL/min with a linear 80 min gradient from 100% solvent A (3% acetonitrile, 0.1% formic acid) to 30% solvent B (90% acetonitrile, 0.1% formic acid), followed by a linear 6 min gradient from 30% solvent B to 90% solvent B. Each sample was run for 120 min, including sample loading and column equilibration times. The Q Exactive instrument was operated in the data-dependent mode acquiring HCD MS/MS scans (R=17,500) after each MS1 scan (R=70,000) on the 12 top most abundant ions using an MS1 ion target of 3×10^6 ions and an MS2 target of 5×10^4 ions. The maximum ion time utilized for the MS/MS scans was 120 ms; the HCD-normalized collision energy was set to 27; the dynamic exclusion time was set to 20 s, and the peptide match and isotope exclusion functions were enabled.
All mass spectra were processed using the Spectrum Mill software package v6.0 pre-release (Agilent Technologies) which includes modules developed by us for iTRAQ-based quantification. […]

SLC16A11 [2] = test: Metabolic effectors on SLC16A11 transcript levels in SNU761 cells; assay type: cell-based, human; conditions: 24 hours, low and high concentrations
Method: (§1) FIG. 22 provides bar graphs showing the effects of low and high concentrations of metabolic effectors (oleic acid (OA), insulin and glucagon) on expression levels of SLC16A11 and SLC16A13 transcripts in SNU761 cells cultured for 24 hours in the presence of low/high concentrations of OA (0.3 mM/1.5 mM); insulin (100 nM/500 nM); or glucagon (100 nM/500 nM). Relative transcipt levels of SLC16A11 and SLC16A13 are shown, with 2-FBS (2% Fetal Bovine Serum) used as control.
(§2) FIG. 23 provides bar graphs showing the effects of low and high concentrations of pyruvate or lactate on expression levels of SLC16A11 and SLC16A13 transcripts in SNU761 cells cultured for 24 hours in the presence of 2 mM pyruvate (low), 10 mM pyruvate (high), 20 mM lactate (low), or 100 mM lactate (high). Relative transcipt levels of SLC16A11 and SLC16A13 are shown, compared with transcript levels in cell cultured in increasing concentrations of glucose.
(§3) To assess whether metabolic effectors regulated SLC16A11 and SLC16A13 transcript levels, endogenous transcripts in SNU761 cells (derived from a human hepatocellular carcinoma) were examined following exposure of the cells to different metabolic perturbations. SNU761 cells were cultured in the presence of various metabolic effectors for 24 hours after which time cell lysates were collected and the relative endogenous expression levels of SLC16A11 and SLC16A13 transcripts were assessed. The metabolic effectors included in the cell cultures included oleic acid (OA) at a low concentration (0.3 mM) or a high concentration (1.5 mM); insulin at a low concentration (100 nM) or a high concentration (500 nM) and glucagon at a low concentration (100 nM) and a high concentration (500 nM). Cells cultured in 2-FBS were used as a control. […] (FIG. 22). Similarly, SNU761 cells were cultured in the presence or absence of low or high concentrations of pyruvate or lactate in the culture medium for 24 hours after which time cell lysates were analyzed. In the cultures, low (L) pyruvate concentration was 2 mM; high (H) pyruvate concentration was 10 mM, and low lactate concentration was 20 mM, while high lactate concentration was 100 mM. […] (FIG. 23).

SLC16A13 = test: Metabolic effectors on SLC16A13 transcript levels in SNU761 cells; assay type: cell-based, human; conditions: 24 hours, low and high concentrations
Method: as §1, §2, §3

SLC16A11 [3] = test: Compound treatment, SLC16A11 expression by ddPCR in SNU761 cells; assay type: cell-based, human; conditions: SNU761 cells; same concentrations and treatment times as LINCS; ddPCR
In short: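 SNU761 hepatocellular carcinoma cells, plated 24 h, treated with compounds at 10 μM final or vehicle, with treatment times matching the LINCS dataset. SLC16A11 mRNA quantified by TaqMan droplet digital PCR, normalized to TBP or HPRT1.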

SLC16A11 [4] = test: Compound treatment, SLC16A11 expression by ddPCR in NCIH716 cells; assay type: cell-based, human; conditions: same concentrations and treatment times as LINCS
Method: A small number of the compounds that made the strongest positive connections to the SLC16A11 gene expression signature were selected and tested. […] Methotrexate was also included, which had been annotated as a dihydrofolate reductase inhibitor. SNU761 cells (derived from a human hepatocellular carcinoma) and NCIH716 cells (derived from a human cecum adenocarcinoma), which both express SLC16A11, were treated with the compounds. The same compound concentrations and treatment times were used as in the LINCS dataset experiments. […] For normalization, a different housekeeper gene, HPRT1, was used and obtained similar results with the mTOR inhibitors (FIGS. 14A and 14B).
SNU761 (human hepatocellular carcinoma) and NCIH716 (human cecum adenocarcinoma) were cultured in RPMI Medium 1640 supplemented with 10% Fetal Bovine Serum (FBS), 100 μg/ml Streptomycin and 100 U/ml Penicillin. Cells were grown in a humidified CO2 incubator, at 37° C.
For the unbiased approach taken to investigate the compounds that connected to the SLC16A11 gene expression signature, compounds were obtained from compound management at the Broad Institute.
SNU761 and NCIH716 cells were plated into 96 well plates at a density of 20,000 cells per well. Hepatocytes were plated into collagen coated 96 well plates (Corning, 354408) at a density of 50,000 cells per well. After 24 hours, cells were treated with compounds at a final concentration of 10 μM or vehicle control for the appropriate amount of time.
At the time of collection, cells in 96 well plates were lysed by directly adding 50 μL of RLT buffer (Qiagen). […]
RNA was DNase treated and converted into cDNA using the High-Capacity RNA-to-cDNA kit (Thermo Fisher Scientific). The following FAM-labeled TaqMan Real-Time PCR assays (Thermo Fisher Scientific) were used to quantify gene expression: SLC16A11 (Hs00601062_g1), SLC16A13 (Hs00416832_m1), SLC16A1 (Hs01560299_m1). […] Droplets were generated and analyzed using a QX200 Droplet Generator and Reader system (BioRad). Data was extracted using QuantaSoft (BioRad) and analyzed using Microsoft Excel.

Row | Molecule | BA log fold change (SLC16A11 [1]) | also measured
1 | PSMA1 | 1.20 | 
2 | SCFD1 | 1.08 | 
3 | DNAJB4 | 1.08 | 
4 | PSMD11 | 1.02 | 
5 | CCCCCCCC/C=C\CCCCCCCC(=O)O [oleic acid] |  | SLC16A11 transcript levels (SLC16A11 [2]): alter; SLC16A13 transcript levels (SLC16A13): increase
6 | PSMD14 | 1.31 | 
7 | glucagon: metabolic effector (hormone) |  | SLC16A11 transcript levels (SLC16A11 [2]): alter; SLC16A13 transcript levels (SLC16A13): alter
8 | insulin: metabolic effector (hormone) |  | SLC16A11 transcript levels (SLC16A11 [2]): alter; SLC16A13 transcript levels (SLC16A13): alter
9 | EMB | 1.55 | 
10 | GCN1L1 | 1.01 | 
11 | CN(Cc1cnc2nc(N)nc(N)c2n1)c1ccc(C(=O)N[C@@H](CCC(=O)O)C(=O)O)cc1 [methotrexate, reference compound] |  | SLC16A11 transcript levels, compound treated compared to DMSO treated cells (SLC16A11 [3]): did not alter; SLC16A11 transcript levels, compound treated compared to DMSO treated cells (SLC16A11 [4]): did not alter
12 | RNF5 | 1.42 | 
13 | ATP1B3 | 1.18 | 
14 | PSMC3 | 1.16 | 
15 | BAG6 | 1.08 | 
16 | KIAA0368 | 1.16 | 
17 | PSMD2 | 0.98 | 
18 | TUBA1B | 1.05 | 
